Experimental data taken from PubChem BioAssay AID248 (DTP/NCI, 2004).
Several values for one entry are separate records, joined by “and”; a condition that tells them apart may be missing. Equal entries are not always repeated. Inconclusive results and toxic doses are left out. No stated cut-off is given here; in the data, active means T/C of 150% or more; inactive means T/C below 125%.

System: L1210 leukemia ip in BDF1 mice, survival T/C
Test: NCI In Vivo Anticancer Drug Screen. Data for tumor model L1210 Leukemia (intraperitoneal) in B6D2F1 (BDF1) mice
Conditions: endpoint: mean survival time, higher = longer survival
Procedure, shortened: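 Tumor was transplanted into mice, which were then dosed with test compound or vehicle alone. Survival was recorded for each group, and the treated figure was expressed relative to the control figure.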

[1] = dose: 100.0 mg/kg/injection, schedule: Q01DX009 (ip), vehicle: Klucel (hydroxypropylcellulose) (HPC)
[2] = dose: 100.0 mg/kg/injection, schedule: Q04DX003 (ip), vehicle: Klucel (hydroxypropylcellulose) (HPC)
[3] = dose: 200.0 mg/kg/injection, schedule: Q01DX009 (ip), vehicle: Klucel (hydroxypropylcellulose) (HPC)
[4] = dose: 200.0 mg/kg/injection, schedule: Q04DX003 (ip), vehicle: Klucel (hydroxypropylcellulose) (HPC)
[5] = dose: 400.0 mg/kg/injection, schedule: Q01DX009 (ip), vehicle: Klucel (hydroxypropylcellulose) (HPC)
[6] = dose: 400.0 mg/kg/injection, schedule: Q04DX003 (ip), vehicle: Klucel (hydroxypropylcellulose) (HPC)
[7] = dose: 100.0 mg/kg/injection, schedule: Q01DX009 (ip), vehicle: saline with Tween-80
[8] = dose: 200.0 mg/kg/injection, schedule: Q01DX009 (ip), vehicle: saline with Tween-80
[9] = dose: 400.0 mg/kg/injection, schedule: Q01DX009 (ip), vehicle: saline with Tween-80
[10] = dose: 100.0 mg/kg/injection, schedule: Q01DX001 (ip), vehicle: carboxymethylcellulose (CMC)
[11] = dose: 200.0 mg/kg/injection, schedule: Q01DX001 (ip), vehicle: carboxymethylcellulose (CMC)
[12] = dose: 400.0 mg/kg/injection, schedule: Q01DX001 (ip), vehicle: carboxymethylcellulose (CMC)
[13] = dose: 100.0 mg/kg/injection, schedule: Q01DX001 (ip), vehicle: saline
[14] = dose: 200.0 mg/kg/injection, schedule: Q01DX001 (ip), vehicle: saline
[15] = dose: 400.0 mg/kg/injection, schedule: Q01DX001 (ip), vehicle: saline
[16] = dose: 100.0 mg/kg/injection, schedule: Q04DX003 (ip), vehicle: saline
[17] = dose: 200.0 mg/kg/injection, schedule: Q04DX003 (ip), vehicle: saline
[18] = dose: 400.0 mg/kg/injection, schedule: Q04DX003 (ip), vehicle: saline

Measured: T/C

Cc1cccc(C)c1NS(=O)(=O)c1ccccc1
inactive: [1] 104 % of control | [2] 101 % of control | [3] 101 % of control | [4] 103 % of control | [5] 98 % of control | [6] 104 % of control

O=C(O)c1cc(-c2cccs2)c(C(=O)O)s1
inactive: dose: 100.0 mg/kg/injection, schedule: Q04DX003 (ip), vehicle: other 103 % of control | dose: 200.0 mg/kg/injection, schedule: Q04DX003 (ip), vehicle: other 93 % of control

O=C(O)/C=C/c1cnc[nH]1
inactive: dose: 100.0 mg/kg/injection, schedule: Q04DX002 (ip), vehicle: saline 93 % of control | dose: 200.0 mg/kg/injection, schedule: Q04DX002 (ip), vehicle: saline 104 % of control | dose: 400.0 mg/kg/injection, schedule: Q04DX002 (ip), vehicle: saline 108 % of control

Cc1ccc(NC(=O)C(Cl)(Cl)Cl)cc1[N+](=O)[O-]
inactive: [7] 94 % of control | [8] 100 % of control | [9] 104 % of control

CC(C)=CCC/C(C)=C/CN1C(=O)c2ccccc2C1=O
inactive: [7] 103 % of control | dose: 100.0 mg/kg/injection, schedule: Q04DX003 (ip), vehicle: saline with Tween-80 93 % of control | [8] 106 % of control | dose: 200.0 mg/kg/injection, schedule: Q04DX003 (ip), vehicle: saline with Tween-80 102 % of control | [9] 95 % of control | dose: 400.0 mg/kg/injection, schedule: Q04DX003 (ip), vehicle: saline with Tween-80 96 % of control

Cc1ccc(NC(=O)Oc2cccnc2)cc1NC(=O)Oc1cccnc1
inactive: [1] 93 % of control | [3] 94 % of control

CC(C)C[n+]1cc([O-])on1
inactive: dose: 6.25 mg/kg/injection, schedule: Q01DX009 (ip), vehicle: Klucel (hydroxypropylcellulose) (HPC) 97 % of control | dose: 12.5 mg/kg/injection, schedule: Q01DX009 (ip), vehicle: Klucel (hydroxypropylcellulose) (HPC) 100 % of control

CCCCOc1c(OCCCC)c(=O)c1=O
inactive: dose: 178.0 mg/kg/injection, schedule: Q01DX001 (ip), vehicle: saline 106 % of control | dose: 267.0 mg/kg/injection, schedule: Q01DX001 (ip), vehicle: saline 106 % of control

Nc1cccc(OCc2cccc([N+](=O)[O-])c2)c1
inactive: [10] 101 % of control | [11] 90 % of control | [12] 86 % of control

Cc1cc(N(CCOS(C)(=O)=O)CCOS(C)(=O)=O)ccc1C=Nc1ccc(-c2csc(-c3ccccc3)n2)c(Cl)c1
inactive: dose: 20.0 mg/kg/injection, schedule: Q04DX003 (ip), vehicle: Klucel (hydroxypropylcellulose) (HPC) 121 % of control | dose: 60.0 mg/kg/injection, schedule: Q04DX003 (ip), vehicle: Klucel (hydroxypropylcellulose) (HPC) 122 % of control | dose: 80.0 mg/kg/injection, schedule: Q04DX003 (ip), vehicle: Klucel (hydroxypropylcellulose) (HPC) 120 % of control | [2] 122 % of control

O=C(/C=C\C=C\c1ccccc1)c1ccc([N+](=O)[O-])cc1
inactive: [10] 92 % of control and 89 % of control | dose: 100.0 mg/kg/injection, schedule: Q01DX009 (ip), vehicle: carboxymethylcellulose (CMC) 100 % of control and 89 % of control | dose: 100.0 mg/kg/injection, schedule: Q04DX002 (ip), vehicle: gum acacia 95 % of control and 99 % of control | dose: 100.0 mg/kg/injection, schedule: Q04DX003 (ip), vehicle: carboxymethylcellulose (CMC) 93 % of control and 86 % of control | [11] 95 % of control and 89 % of control | dose: 200.0 mg/kg/injection, schedule: Q01DX009 (ip), vehicle: carboxymethylcellulose (CMC) 90 % of control | dose: 200.0 mg/kg/injection, schedule: Q04DX002 (ip), vehicle: gum acacia 101 % of control and 89 % of control | dose: 200.0 mg/kg/injection, schedule: Q04DX003 (ip), vehicle: carboxymethylcellulose (CMC) 86 % of control and 90 % of control | [12] 92 % of control and 89 % of control | dose: 400.0 mg/kg/injection, schedule: Q01DX009 (ip), vehicle: carboxymethylcellulose (CMC) 96 % of control and 97 % of control | dose: 400.0 mg/kg/injection, schedule: Q04DX002 (ip), vehicle: gum acacia 92 % of control and 89 % of control | dose: 400.0 mg/kg/injection, schedule: Q04DX003 (ip), vehicle: carboxymethylcellulose (CMC) 90 % of control

CCOP(=S)(Nc1cccc(C(F)(F)F)c1)OCC
inactive: [13] 102 % of control | [14] 100 % of control | [15] 96 % of control

O=C(O)c1cc(Cl)c(O)c(Cl)c1
inactive: [7] 107 % of control | [8] 91 % of control | [9] 101 % of control

Cc1cc(C)c(OS(=O)(=O)c2ccc([N+](=O)[O-])cc2)c(C)c1
inactive: [8] 87 % of control | [9] 89 % of control

O=C(NCN1C(=O)c2ccccc2C1=O)NCN1C(=O)c2ccccc2C1=O
inactive: [1] 95 % of control | [3] 102 % of control | [5] 92 % of control

CCN(CC)CCN1c2cc(C)ccc2Sc2ccc3ccccc3c21
inactive: dose: 100.0 mg/kg/injection, schedule: Q01DX001 (sc), vehicle: olive oil, sesame oil, peanut oil 101 % of control | dose: 100.0 mg/kg/injection, schedule: Q01DX009 (sc), vehicle: olive oil, sesame oil, peanut oil 101 % of control | dose: 100.0 mg/kg/injection, schedule: Q04DX003 (sc), vehicle: olive oil, sesame oil, peanut oil 110 % of control | dose: 200.0 mg/kg/injection, schedule: Q01DX001 (sc), vehicle: olive oil, sesame oil, peanut oil 100 % of control | dose: 200.0 mg/kg/injection, schedule: Q01DX009 (sc), vehicle: olive oil, sesame oil, peanut oil 118 % of control | dose: 200.0 mg/kg/injection, schedule: Q04DX003 (sc), vehicle: olive oil, sesame oil, peanut oil 110 % of control | dose: 400.0 mg/kg/injection, schedule: Q01DX001 (sc), vehicle: olive oil, sesame oil, peanut oil 101 % of control | dose: 400.0 mg/kg/injection, schedule: Q04DX003 (sc), vehicle: olive oil, sesame oil, peanut oil 113 % of control

O=C(Cc1ccccc1)NCc1ccccc1
inactive: dose: 25.0 mg/kg/injection, schedule: Q01DX001 (ip), vehicle: saline 97 % of control | dose: 50.0 mg/kg/injection, schedule: Q01DX001 (ip), vehicle: saline 101 % of control | [13] 104 % of control | [14] 104 % of control

CCCCCCCCCCCCn1cnc2ncnc(Cl)c21
inactive: dose: 12.5 mg/kg/injection, schedule: Q01DX005 (ip), vehicle: other 102 % of control | dose: 25.0 mg/kg/injection, schedule: Q01DX005 (ip), vehicle: other 98 % of control | dose: 50.0 mg/kg/injection, schedule: Q01DX005 (ip), vehicle: other 98 % of control | dose: 100.0 mg/kg/injection, schedule: Q01DX005 (ip), vehicle: other 96 % of control

CN(C)Cc1cccc2ccccc12
inactive: dose: 50.0 mg/kg/injection, schedule: Q01DX009 (ip), vehicle: Klucel (hydroxypropylcellulose) (HPC) 95 % of control

O=C(Nc1ccc([N+](=O)[O-])cc1Cl)Oc1ccc(F)cc1
inactive: [2] 95 % of control | [4] 96 % of control | [6] 100 % of control

CC1=CCC(=C(C)C)C1C(=O)NC1CCCCC1 (stereo unspecified)
inactive: [13] 97 % of control | dose: 100.0 mg/kg/injection, schedule: Q01DX009 (ip), vehicle: propolene glycol 105 % of control | dose: 200.0 mg/kg/injection, schedule: Q01DX009 (ip), vehicle: propolene glycol 109 % of control | [15] 100 % of control | dose: 400.0 mg/kg/injection, schedule: Q01DX009 (ip), vehicle: propolene glycol 106 % of control

CCc1c(O)c2ccc3ccccc3c2oc1=O
inactive: [16] 97 % of control | [17] 94 % of control | [18] 94 % of control

CN(C)/C=N/NC(=O)c1ccncc1
inactive: dose: 100.0 mg/kg/injection, schedule: Q01DX009 (ip), vehicle: saline 94 % of control | [16] 88 % of control | dose: 200.0 mg/kg/injection, schedule: Q01DX009 (ip), vehicle: saline 97 % of control | [17] 100 % of control | dose: 400.0 mg/kg/injection, schedule: Q01DX009 (ip), vehicle: saline 108 % of control | [18] 96 % of control

CCOC(=O)c1cnc(SC)nc1Nc1cccc(Br)c1
inactive: [1] 91 % of control | [2] 97 % of control | [3] 96 % of control | [4] 92 % of control | [5] 93 % of control | [6] 90 % of control
